{"source": "patent US20240294881A1", "about": "“CELL CULTURE SUPPLEMENT FOR PRODUCING STEM CELLS, AND METHOD FOR PRODUCING STEM CELLS” (OPTICELL, INC, priority 2021, published 2024)", "assay_type_in_all_cases": "cell-based", "key": {"[1]": {"test_system": "healthy human adult skin fibroblasts", "assay": "Real-time PCR of stem cell and triploblastic marker genes in adult skin fibroblast spheroids", "settings": "day 20 of 3D spheroid culture, ΔΔCt", "protocol": "An aqueous solution of the polypeptide represented by formula (1) (0.125%) (cell culture supplement) was added to a commercial polystyrene-made 96-well round-bottom culture vessel (Nuncion Delta 96U Bottom, Thermo Fisher Scientific) and allowed to stand at 4° C. for 24 hours. The cell culture supplement solution was then removed and the coated cell culture supplement was dried in a dryer at 37° C. for 96 hours to complete the cell culture supplement coating process. Healthy human adult skin fibroblasts (Lonza, normal human dermal fibroblast-adult, referred to as “adult skin fibroblasts” below) were maintained and cultured in a serum-free medium (Fujifilm Wako Pure Chemical Corporation; DMEM/F12 medium, human serum albumin recombinant 0.5 mg/mL, human transferrin recombinant 10 μg/mL, basic-FGF 5 ng/ml, and insulin 2.5 μg/mL). Adult skin fibroblasts floating in 100 μL of the medium were seeded in the 96-well round-bottom culture vessel coated with the cell culture supplement at 2×10^4 cells/well and cultured at 37° C. under 5% CO2 conditions.\nThe detection of stem cell marker genes was performed by analysis of the expression of mRNA by real-time PCR. Specifically, on day 20 from the start of culture, spheroids were collected in a 15-mL centrifuge tube and centrifuged, followed by washing the cells with phosphate buffered saline(−) and collecting the cells. Cells two-dimensionally cultured in a culture vessel not treated with the cell culture supplement (control) (day 0) were washed with PBS (−) after removal of the medium. The cells were detached from the plate with 0.05% trypsin-EGTA and dissociated, followed by collecting the cells in a 15-mL centrifuge tube and washing again with PBS(−) again. A NucleoZOL (Macherey-Nagel) reagent was added to the spheroids, and RNA was extracted according to the protocol recommended by the reagent manufacturer and determined to be template RNA. For real-time PCR analysis, PCR probes from QuantiFast Probe RT-PCR Kits (QIAGEN; No. 204454) and TaqMan Gene Expression Assay Probe (Thermo Fisher Scientific) were used. PCR analysis was performed with a Rotor-Gene Q (QIAGEN) apparatus. For detection of genes, three transcription factors were used as probes for detecting the expression of undifferentiated stem cell marker genes: SOX2 (sex-determining region Y-box 2), OCT4 (octamer binding transcription factor 4), and NANOG (homeodomain transcription factor); and β-actin was used as an endogenous control gene (FIG. 13).\nTo determine whether stem cells induced in spheroids can differentiate into primordial three germ layers, the expression of triploblastic marker genes was examined by real-time PCR. For probes for detection, the following four triploblastic marker genes were used: SOX17 (sex-determining region Y-box 17; endoderm), GATA6 (GATA family of zinc finger transcription factors; endoderm), HAND1 (heart-and neural crest derivatives-expressed protein 1; mesoderm), and SOX1 (HMG-box (high mobility group) DNA-binding domain; ectoderm). For an endogenous control gene, TaqMan Gene Expression Assay Probe (ß-actin) was used (FIG. 14). In the gene expression analysis, relative quantification was performed according to the ΔΔCt method (Delta Delta Ct method). The results of analysis according to the ΔΔCt method show the amount of a gene expressed by control cells under the conditions of “no cell culture supplement, flat-bottom 2D growth, day 0” as “1.0” in relative terms, and the increase rate in “the expression level in spheroid proliferation on day 20” was determined by comparison."}, "[2]": {"test_system": "ES2 cells (human ovarian cancer cells)", "assay": "Three-dimensional spheroid culture of cancer cells, microscope observation", "settings": "6-well flat-bottom vessel coated with 0.125% solution; DMEM + 10% FBS; day 4 to day 15", "protocol": "(§1) Method 2 mL of an aqueous solution of the polypeptide represented by formula (1) (0.125%) (cell culture supplement) was added to a commercial polystyrene-made 6-well flat-bottom culture vessel (CellBIND, Corning) and allowed to stand at 4° C. for 24 hours.\n(§2) The cell culture supplement solution was then removed and the coated cell culture supplement was dried in a dryer at 37° C. for 96 hours to complete the cell culture supplement coating process. For human cancer cells, common cancer cell lines, A549 cells (human lung cancer cells, ATCC CCL-185, carcinoma), ES2 cells (human ovarian cancer cells, ATCC CRL-1978, clear cell carcinoma), and HOS-143 cells (human osteosarcoma cells, ATCC CRL-8303, osteosarcoma), were used. Each type of cancer cells was seeded in the culture vessel at 2×10^5 cells/well/[…] and cultured at 37° C. under 5% CO2. The medium for use was a DMEM medium supplemented with 10% FBS and penicillin/streptomycin. For a control, cancer cells were seeded in the same type of culture vessel that was not coated with the cell culture supplement at […]. Observation was performed with a microscope on day 4 and day 15 after the start of culture to capture images of spheroid formation (FIG. 18)."}, "[3]": {"test_system": "A549 cells (human lung cancer cells)", "assay": "Three-dimensional spheroid culture of cancer cells, microscope observation", "settings": "6-well flat-bottom vessel coated with 0.125% solution; DMEM + 10% FBS; day 4 to day 15", "protocol": "as §1, §2"}, "[4]": {"test_system": "HOS-143 cells (human osteosarcoma cells)", "assay": "Three-dimensional spheroid culture of cancer cells, microscope observation", "settings": "6-well flat-bottom vessel coated with 0.125% solution; DMEM + 10% FBS; day 4 to day 15", "protocol": "as §1, §2"}}}
{"substance": "(Pro-Hyp-Gly)n [cell culture supplement]", "values": [{"measurement": "NANOG gene expression level (increase vs control)", "setting": "[1]; 2D control cells = 1.0", "result": 50.5, "unit": "fold"}, {"measurement": "OCT4 gene expression level (increase vs control)", "setting": "[1]; 2D control cells = 1.0", "result": 13.0, "unit": "fold"}, {"measurement": "SOX2 gene expression level (increase vs control)", "setting": "[1]; 2D control cells = 1.0", "result": 9.4, "unit": "fold"}, {"measurement": "GATA6 gene expression level (increase vs control)", "setting": "[1]; control cells = 1.0", "result": 2.2, "unit": "fold"}, {"measurement": "HAND1 gene expression level (increase vs control)", "setting": "[1]; control cells = 1.0", "result": 33.9, "unit": "fold"}, {"measurement": "SOX1 gene expression level (increase vs control)", "setting": "[1]; control cells = 1.0", "result": 7.1, "unit": "fold"}, {"measurement": "SOX17 gene expression level (increase vs control)", "setting": "[1]; control cells = 1.0", "result": 11.4, "unit": "fold"}, {"measurement": "spheroid formation", "setting": "[2]", "result": "form spheroids"}, {"measurement": "spheroid formation", "setting": "[3]", "result": "form spheroids"}, {"measurement": "spheroid formation", "setting": "[4]", "result": "form spheroids"}]}
